Our source for the TGI and GI50 values is PubChem BioAssay (NCI).

Molecules are shown by their SMILES.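 Where inhibition never reached the appropriate level, the endpoint shown equals the highest concentration tested. Otherwise, values were interpolated linearly from a five-concentration, 48-hour dose response in 96-well plates. GI50: concentration for 50% inhibition of growth. TGI denotes the concentration required for complete inhibition of growth.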

Some test systems named below: ACHN renal; CAKI-1 renal; COLO 205 colon; HCT-116 colon; HS 578T breast; LOX IMVI melanoma; OVCAR-8 ovarian; SK-MEL-28 melanoma; SNB-75 CNS; TK-10 renal.
What all share (test): NCI-60 cell line screen, 48 h

As to `COC(=O)c1ccc2c(c1)C(NC(C)=O)CCc1cc(OC)c(OC)c(OC)c1-2` (stereo not given), the TGI is greater than 100 µM with ACHN renal; 77.4 µM in the assay on CAKI-1 renal; 0.0194 µM in the assay with COLO 205 colon; 0.391 µM in the assay with HCT-116 colon; 7.78 µM in the assay with HS 578T breast; greater than 96.5 µM in the assay with LOX IMVI melanoma. Also, the TGI is 9.1 µM in the assay on OVCAR-8 ovarian, greater than 100 µM in the assay on SK-MEL-28 melanoma, 15.1 µM in the assay with SNB-75 CNS and greater than 100 µM with TK-10 renal.
Consider `O=C(Nc1ccc(OC(F)(F)F)cc1)c1sccc1NCc1ccnc2ccccc12`, for which the GI50 was 2.56 µM in the assay on ACHN renal; 1.75 µM with CAKI-1 renal; 3.74 µM with COLO 205 colon; 2.12 µM in the assay with HCT-116 colon; 3.39 µM in the assay on HS 578T breast; 2.85 µM in the assay on LOX IMVI melanoma. Besides, the GI50 with OVCAR-8 ovarian is 4.18 µM; in the assay with SK-MEL-28 melanoma it was 5.64 µM; in the assay with SNB-75 CNS, 1.88 µM; in the assay with TK-10 renal, 4.87 µM. For the same compound, the TGI is greater than 100 µM in the assay with ACHN renal; 19.3 µM in the assay on CAKI-1 renal; 13.8 µM in the assay on COLO 205 colon; greater than 100 µM in the assay on HCT-116 colon; 26 µM with HS 578T breast; 13.5 µM with LOX IMVI melanoma. Besides, the TGI with OVCAR-8 ovarian was greater than 56.4 µM; with SK-MEL-28 melanoma it was greater than 100 µM; in the assay on SNB-75 CNS, 26.5 µM; in the assay with TK-10 renal, 98.6 µM.
Regarding `CSc1ccc(C2=Nn3c(nnc3-c3ccc(F)c(Cl)c3)SC2)cc1`, the GI50 in the assay with ACHN renal is 13.7 µM; with CAKI-1 renal it was 22.5 µM; with COLO 205 colon it was 25.9 µM; in the assay on HCT-116 colon it was 9.85 µM; with HS 578T breast, 10 µM; in the assay on LOX IMVI melanoma, 10.8 µM. In addition, the GI50 with OVCAR-8 ovarian is 22.2 µM; with SK-MEL-28 melanoma, 34.2 µM; with SNB-75 CNS, 4.67 µM; in the assay on TK-10 renal, 7.52 µM. Besides, the TGI was 33.6 µM with ACHN renal; greater than 100 µM in the assay with CAKI-1 renal; greater than 100 µM in the assay with COLO 205 colon; 23.4 µM in the assay on HCT-116 colon; 36.6 µM with HS 578T breast; 43.1 µM in the assay with LOX IMVI melanoma. In addition, the TGI in the assay on OVCAR-8 ovarian was greater than 100 µM; in the assay on SK-MEL-28 melanoma, greater than 100 µM; in the assay with SNB-75 CNS, 16 µM; in the assay on TK-10 renal, 21.2 µM.
Take `CCOC(=O)c1c(NC(=O)c2ccc(C(C)C)cc2)sc2c(CN(C)C)c(O)ccc12`: the GI50 is 3.03 µM with ACHN renal; 1.73 µM in the assay with CAKI-1 renal; 2.06 µM with COLO 205 colon; 1.78 µM with HCT-116 colon; 2.01 µM in the assay on HS 578T breast; 1.76 µM in the assay on LOX IMVI melanoma. Moreover, the GI50 with OVCAR-8 ovarian is 3.56 µM; with SK-MEL-28 melanoma, 1.73 µM; in the assay on SNB-75 CNS, 1.47 µM; with TK-10 renal, 3 µM. For the same compound, the TGI in the assay on ACHN renal worked out at 9.24 µM; in the assay with CAKI-1 renal, 3.44 µM; in the assay on COLO 205 colon, 4.5 µM; in the assay with HCT-116 colon, 3.36 µM; in the assay on HS 578T breast, 4.37 µM; in the assay with LOX IMVI melanoma it was 3.23 µM. The TGI with OVCAR-8 ovarian was found to be 16.3 µM; in the assay with SK-MEL-28 melanoma, 3.24 µM; in the assay with SNB-75 CNS, 3.39 µM; in the assay with TK-10 renal, 9.39 µM.
Take `C=C1C(=O)O[C@@H]2C[C@@]3(C)CC(=O)C=C(C)[C@@H]3C[C@H]12`: the TGI was found to be 8.69 µM in the assay on ACHN renal; 21.6 µM with CAKI-1 renal; 11.4 µM in the assay on COLO 205 colon; 20.2 µM in the assay with HCT-116 colon; 99.7 µM with HS 578T breast; 38.1 µM in the assay on LOX IMVI melanoma. In addition, the TGI in the assay on OVCAR-8 ovarian was determined as 42.9 µM; in the assay on SK-MEL-28 melanoma, 41.9 µM; in the assay with SNB-75 CNS, 39.6 µM; with TK-10 renal it was 25.7 µM.
Regarding `CCN(c1ccc(CO)c(Cl)c1)C(C)c1ccc(F)cc1` (stereo not given), the GI50 in the assay with ACHN renal was 14.2 µM; in the assay with CAKI-1 renal, 8.46 µM; with COLO 205 colon, 18.9 µM; in the assay on HCT-116 colon, 4.22 µM; with HS 578T breast it was 16.9 µM; with LOX IMVI melanoma, 17.1 µM. In addition, the GI50 is 14.1 µM with OVCAR-8 ovarian, 16.1 µM in the assay with SK-MEL-28 melanoma, 13 µM in the assay on SNB-75 CNS and 1.12 µM with TK-10 renal. The TGI with ACHN renal was found to be 27.7 µM; in the assay on CAKI-1 renal, 21.7 µM; with COLO 205 colon, 35.5 µM; in the assay with HCT-116 colon, 17.4 µM; in the assay on HS 578T breast it was 40.2 µM; in the assay on LOX IMVI melanoma, 32.9 µM. Also, the TGI in the assay on OVCAR-8 ovarian came out at 30.2 µM; in the assay on SK-MEL-28 melanoma it was 30.6 µM; in the assay on SNB-75 CNS, 26.8 µM; with TK-10 renal, 6.11 µM.
Consider `C[n+]1cc2c3c(ccc2c2ccc4cc5c(cc4c21)OCO5)OCO3`, for which the GI50 is 0.788 µM in the assay with ACHN renal; 0.735 µM in the assay on CAKI-1 renal; 0.255 µM in the assay with COLO 205 colon; 0.227 µM in the assay with HCT-116 colon; 2.11 µM in the assay with HS 578T breast; 0.171 µM in the assay with LOX IMVI melanoma. The GI50 with OVCAR-8 ovarian was 0.326 µM; with SK-MEL-28 melanoma it was 1.22 µM; in the assay on SNB-75 CNS it was 1.01 µM; in the assay on TK-10 renal, 1.33 µM. In addition, the TGI was 2.09 µM in the assay on ACHN renal; 2.13 µM in the assay on CAKI-1 renal; 0.778 µM in the assay on COLO 205 colon; 0.593 µM in the assay with HCT-116 colon; greater than 24.6 µM with HS 578T breast; 0.411 µM with LOX IMVI melanoma. The TGI with OVCAR-8 ovarian stood at 1.4 µM; with SK-MEL-28 melanoma, 2.48 µM; in the assay with SNB-75 CNS it was 2.17 µM; in the assay with TK-10 renal it was 2.65 µM.
`C[C@]12CC[C@@H]3c4ccc(O)c([N+](=O)[O-])c4CC[C@H]3[C@@H]1CC[C@@H]2NS(=O)(=O)c1ccc(C(F)(F)F)cc1`: the GI50 in the assay on ACHN renal was 2.17 µM; with CAKI-1 renal it was 2.17 µM; in the assay with COLO 205 colon, 3.05 µM; with HCT-116 colon, 1.6 µM; with HS 578T breast, 2.14 µM; with LOX IMVI melanoma it was 1.67 µM. Also, the GI50 in the assay with OVCAR-8 ovarian was 2.46 µM; in the assay on SK-MEL-28 melanoma it was 1.99 µM; with SNB-75 CNS, 1.43 µM; with TK-10 renal, 2.77 µM. In addition, the TGI in the assay with ACHN renal was 6.78 µM; in the assay on CAKI-1 renal, 6.24 µM; in the assay with COLO 205 colon it was 9.4 µM; in the assay with HCT-116 colon it was 2.99 µM; in the assay with HS 578T breast it was 6.56 µM; with LOX IMVI melanoma, 3.07 µM. The TGI in the assay on OVCAR-8 ovarian was determined as 8.3 µM; in the assay on SK-MEL-28 melanoma it was 3.66 µM; in the assay on SNB-75 CNS, 5.73 µM; in the assay with TK-10 renal, 7.26 µM.
